Measured values published in PMC11784013, “Potassium molybdate blocks APN-dependent coronavirus entry by degrading receptor via PIK3C3-mediated autophagy” (Journal of Virology, 2024).
“Also recorded” adds a separate entry of the source.

Experiments:
[1] = system: PRCV; assay: PRCV entry assay in ST cells; assay type: cell-based, porcine respiratory coronavirus; conditions: PM 10 mM, PRCV 0.1 MOI, 1 or 2 h at 37°C, RT-qPCR and IFA
Method: Fig. S4. […] (A and B) Entry assay. ST cells were infected with 0.1
MOI PRCV for 1 h at 4 °C, and were then treated with PM (10 mΜ) or H2O for 1 h or 2 h at 37 °C. The cells samples were washed using sodium citrate buffer and detected by RT-qPCR (A) and IFA (B), Scale bar: 50 μm /5 μm. Results are presented as mean ± SD of data from three independent experiments ***, (also on this page, place not known: 0.0 0.5 1.0 1.5 Relative genomic RNA level *** *** DAPIPRCV PM H2O 1h 2h 1 2 3 4 5 H2O PM Viral load (log copies/ul) *** *** 1h 2h CollectedPM/H2O) […]

[2] = system: ST cells; assay: Cell Counting Kit 8 cytotoxicity assay in ST cells; assay type: cell-based, swine; conditions: PM at concentrations less than 30 mM, 24 h
Method: Fig 1 PM inhibits TGEV and PRCV infection in ST cells. (A) A cytotoxicity assay of PM in ST cells. ST cells cultured in a 96-well plate were incubated with different concentrations of PM for 24 h, which was tested by Cell Counting Kit 8. (B) Time course for PM inhibiting TGEV or PRCV or PEDV infection assay. (C–F) The ST cells, pretreated with PM at the indicated concentrations for 1 h were infected with TGEV Miller (0.1 MOI) or PRCV (0.1 MOI) for 1 h and were again treated with PM at 37°C for 17 h. The cell samples were collected and examined by real-time quantitative PCR (RT-qPCR), TCID50, western blot (C and D), and immunofluorescence assay (IFA) (E and F), scale bar: 50 µm. (G) Vero-E6 cells were treated with indicated PM and infected with PEDV LJX 01/2014 according to the time course of Fig. 1B, which was detected by TCID50 and western blot. Results are presented as mean ± SD of data from three independent experiments. ns, no significant; **, P ≤ 0.01; ***, P ≤ 0.001.
ST cells or intestinal organoids cultured in a 96-well plate were incubated with different concentrations of PM (0, 0.1, 0.25, 0.5, 1, 2.5, 5, 10, 20, and 30 mM) for 24 h. […] The absorbance of each well was then measured at 450 nm using a microplate reader to determine cell viability.

[3] = system: PIK3C3-BECN1-ATG14 complex; assay: Co-IP and confocal analysis of PtdIns3K complex assembly in ST cells; assay type: cell-based, porcine; conditions: 36 h
Method: Fig 8 PM promotes PIK3C3-BECN1-ATG14 complex assembly by enhancing PIK3C3 Ser249 phosphorylation. (A) ST cells were transfected with pCMV-Myc-PIK3C3 and pCDNA3.1-Flag-BECN1 for 12 h and then treated with PM (10 mM) for 36 h. The Co-IP was carried out by Flag or Myc Ab, followed by western blot analysis. (B) ST cells were transfected with pCDNA3.1-Flag-BECN 1 and pCDNA3.4-His-ATG14 for 12 h and treated with PM (10 mM) for 36 h. The Co-IP was performed with Flag or […] Ab, followed by western blot detection. (C–E) ST cells were transfected with pCMV-Myc-PIK3C3, pCDNA3.1-Flag-BECN1, and pCDNA3.4-His-ATG14 for 12 h, and PM (10 mM) was added to the cells for 36 h. Then Co-IP was performed with a Myc, Flag, and His Ab individually, and all IPs, input, and phosphorylation of PIK3C3 (Ser249), BECN1 (Ser14), and ATG14 (Ser29) were detected by western blot. (F) ST cells were transfected with pCMV-Myc-PIK3C3, pCDNA3.1-Flag-BECN1, and pCDNA3.4-His-ATG14 for 12 h, and PM (10 mM) was added to the cells for 36 h, which detected by IFA, scale bar: 20 µm. (G) Quantification of PIK3C3-BECN1-ATG14 complex (merged signal) from F using Image J software. (H) ST cells were transfected with pCMV-Myc-PIK3C3 or pCMV-Myc-PIK3C3 mutant, pCDNA3.1-Flag-BECN1 and pCDNA3.4-His-ATG14 for 12 h and then treated with PM (10 mM) for 36 h. Then Co-IP was performed with a Myc, Flag, and His Ab individually, and all IPs, input, and phosphorylation of PIK3C3 (Ser249), BECN1 (Ser14), and ATG14 (Ser29) were detected by western blot. Results are presented as mean ± SD of data from three independent experiments. ***, P ≤ 0.001.
Cotransfected cells were washed with cold PBS twice and lysed with NP40 lysis buffer (Beyotime, China, P0013F) supplemented with 1 mM PMSF (Beyotime, China, ST506) and phosphatase inhibitors (Beyotime, China, P1096). […] Immunoprecipitated proteins were detected by western blotting. […]

[K+].[K+].[O]=[Mo](=[O])([O-])[O-] [PM, potassium molybdate]
PRCV entry (internalization) [1]: blocks PRCV internalization; also recorded: The same results were also demonstrated for PRCV infection | cytotoxicity (Cell Counting Kit 8) [2]: did not exhibit significant cytotoxicity | PIK3C3 Ser249 phosphorylation ([3]; ST cells co-transfected with Myc-PIK3C3, Flag-BECN1, His-ATG14, PM 10 mM): upregulation of PIK3C3 Ser249 phosphorylation | colocalization of Myc-PIK3C3, Flag-BECN1 and His-ATG14 (confocal microscopy) ([3]; ST cells, PM 10 mM): enhanced the colocalization | interaction between Myc-PIK3C3 and Flag-BECN1 (Co-IP) ([3]; ST cells, PM 10 mM): increased after PM treatment
